Residues, ends and D or L forms follow the SMILES beside them.
System: Trypsin
Assay: Proteolytic degradation
Assay type: in vitro ADME
Settings: peptide 100 µM, trypsin 0.125 mg/ml (~5 µM), ammonium bicarbonate buffer 50 mM pH 8.5, 16 h, 37 °C, MALDI-ToF MS
Text: Samples were resuspended in MQ-water containing 0.1% TFA, desalted using ZipTip-C18 columns (Millipore) and analyzed using MALDI-ToF with α-cyano-4-hydroxycinnamic acid as matrix.

`CC[C@H](C)[C@H](NC(=O)CNC(=O)[C@H](CC(C)C)NC(=O)[C@@H](NC(=O)[C@H](Cc1ccc(O)cc1)NC(=O)[C@@H](NC(=O)[C@H](CO)NC(=O)[C@@H](NC(=O)[C@@H]1CCCN1C(=O)[C@@H](NC(=O)[C@@H](N)CO)C(C)C)[C@@H](C)O)C(C)C)[C@@H](C)O)C(=O)N[C@@H](CCCCN)C(=O)N[C@H](C(=O)N[C@@H](CC(C)C)C(=O)N[C@@H](Cc1c[nH]c2ccccc12)C(=O)N[C@@H](CO)C(=O)N[C@@H](C)C(=O)N[C@@H](Cc1ccc(O)cc1)C(=O)N[C@@H](CCCCN)C(=O)N[C@@H](Cc1c[nH]cn1)C(=O)N[C@@H](CCCNC(=N)N)C(=O)N[C@@H](CCCCN)C(=O)N[C@H](C(=O)N[C@H](C(=O)N[C@@H](CCC(=O)O)C(=O)N[C@@H](CCCCN)C(=O)N[C@@H](CO)C(=O)N[C@@H](Cc1ccccc1)C(=O)N[C@@H](CC(N)=O)C(=O)N[C@@H](CCCCN)C(=O)NCC(=O)N[C@@H](Cc1ccccc1)C(=O)N[C@@H](Cc1ccc(O)cc1)C(=O)N[C@@H](Cc1c[nH]cn1)C(=O)O)[C@@H](C)CC)[C@@H](C)O)[C@@H](C)CC` [L-PLNC8 β] (H-SVPTSVYTLGIKILWSAYKHRKTIEKSFNKGFYH-OH) was tested, and the degradation by trypsin was “efficiently degraded by trypsin”.

From article PMC7046733, “Plantaricin NC8 αβ exerts potent antimicrobial activity against Staphylococcus spp. and enhances the effects of antibiotics” (Scientific Reports, 2020)
